According to patent US20130096100A1, “DI(ARYLAMINO)ARYL COMPOUND” (ASTELLAS PHARMA INC., priority 2007, published 2013):

Tests used:
[1] = molecular target: T1, MUSK (Homo sapiens, UniProt O15146); assay: Inhibitory activity against the kinase activity of MUSK protein (Test Example 7); type: biochemical; parameters: purchased Carna Biosciences Inc., Japan; conditions: ATP 10 μM, reaction 1 hour, HTRF KinEASE-TK
T1 sequence (O15146 24-869): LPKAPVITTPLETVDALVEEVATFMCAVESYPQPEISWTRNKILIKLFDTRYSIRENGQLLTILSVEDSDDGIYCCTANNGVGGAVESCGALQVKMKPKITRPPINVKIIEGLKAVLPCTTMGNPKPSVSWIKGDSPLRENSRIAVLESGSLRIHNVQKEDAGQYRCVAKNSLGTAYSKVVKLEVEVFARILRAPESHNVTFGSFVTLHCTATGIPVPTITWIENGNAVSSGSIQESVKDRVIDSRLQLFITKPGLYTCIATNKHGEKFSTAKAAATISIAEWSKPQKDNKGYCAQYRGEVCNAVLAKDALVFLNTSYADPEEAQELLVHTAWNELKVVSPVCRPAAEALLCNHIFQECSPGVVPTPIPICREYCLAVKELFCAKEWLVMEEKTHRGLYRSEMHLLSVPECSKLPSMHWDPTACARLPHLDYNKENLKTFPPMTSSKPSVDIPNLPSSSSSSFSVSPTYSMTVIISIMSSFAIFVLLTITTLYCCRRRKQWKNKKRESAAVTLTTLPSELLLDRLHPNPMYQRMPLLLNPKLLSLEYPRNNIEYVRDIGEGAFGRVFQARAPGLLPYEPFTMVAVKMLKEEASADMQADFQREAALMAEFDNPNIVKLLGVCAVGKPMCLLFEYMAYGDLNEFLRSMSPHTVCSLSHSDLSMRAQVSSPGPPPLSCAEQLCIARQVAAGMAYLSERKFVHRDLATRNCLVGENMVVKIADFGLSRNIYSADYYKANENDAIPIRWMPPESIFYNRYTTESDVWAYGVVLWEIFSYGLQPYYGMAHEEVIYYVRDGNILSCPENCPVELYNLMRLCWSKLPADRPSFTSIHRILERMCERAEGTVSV
Method: MUSK protein (Carna Biosciences Inc., Japan) was investigated for its phosphorylation activity toward a peptide substrate by using a kinase activity detection kit (HTRF KinEASE-TK; Cisbio Inc.). […] The ATP concentration used was 10 μM. Another reaction solution was prepared to contain the enzyme protein but no test compound (in which the solvent DMSO alone was added at 0.4% in place of the test compound), followed by reaction in the same manner with or without ATP addition. […] The concentration causing 50% inhibition (IC50) was calculated for each test compound by the logistic regression method.

[2] = molecular target: T2, Mutant EGFR (L858R) protein (Homo sapiens, UniProt P00533, L858R); assay: Inhibitory activity against the kinase activity of mutant EGFR (L858R) protein (Test Example 2); type: biochemical; conditions: ATP 5 μM, reaction 1 hour, HTRF KinEASE-TK
T2 construct: purchased Cana Biosciences Inc., Japan (sic; Carna Biosciences)
Method: The ATP concentration used was 5 μM. Another reaction solution was prepared to contain the enzyme protein but no test compound (in which the solvent DMSO alone was added at 0.4% in place of the test compound), followed by reaction in the same manner with or without ATP addition. […] The concentration causing 50% inhibition (IC50) was calculated for each test compound by the logistic regression method.

[3] = test system: human non-small cell lung cancer cell line HCC827 cells (mutant EGFR protein-expressing cells); assay: Inhibitory effect against anchorage-independent cell growth of HCC827 cells (Test Example 4); type: cell-based; conditions: 120 h, spheroid plate, 5 days, CellTiter-Glo
Method: (§1) In a 96-well spheroid plate (Sumilon Celltight Spheroid 96U; Sumitomo Bakelite Co., Ltd., Japan), human non-small cell lung cancer cell line NCI-H2228 cells were seeded at 2000 cells per well in RPMI1640 medium (Invitrogen) containing 10% fetal bovine serum. NCI-H2228 cells are those expressing another EML4-ALK fusion protein, which is different from the EML4-ALK fusion protein v1 because it is encoded by an EML4-ALK fusion polynucleotide whose fusion point on EML4 cDNA is different from that of the EML4-ALK fusion polynucleotide v1, but whose ALK region is the same as that of the EML4-ALK fusion polynucleotide v1. The above NCI-H2228 cells seeded in the plate were cultured overnight under 5% CO2 at 37° C., followed by addition of a test compound (final concentration: 10 μM to 1 nM). As a negative control, DMSO used as a solvent was added at the same concentration as the test compound. Then, the cells were cultured under 5% CO2 at 37° C. for 5 days. A cell counting reagent (CellTiter-Glo™ Luminescent Cell Viability Assay; Promega) was added and agitated for 20 minutes, followed by measurement with a luminometer (ML3000 microtiter plate luminometer; Dynatech Laboratories).
Evaluation of Inhibitory Effect Against Anchorage-Independent Cell Growth of Human Non-Small Cell Lung Cancer Cell Line HCC827 Cells (Mutant EGFR (with Partial Deletion of Exon 19 in EGFR) Protein-Expressing Cells, American Type Culture Collection)
Evaluation was performed in the same manner as shown in Test Example 3.

[4] = test system: NCI-H2228 cells (tumor); assay: Antitumor test (in vivo) on NCI-H2228 cells (Test Example 8); conditions: oral 3 mg/kg once a day for 14 days, NOD/SCID mice; tumor volume
Method: 3×10^6 cells of NCI-H2228 cells suspended in PBS were inoculated subcutaneously by injection to the back of 5 weeks old male NOD/SCID mice (Charles River Japan, Inc.). After 3 weeks of the inoculation, the administration of test compounds was initiated. The test was conducted in the solvent group and test compound groups, 6 animals per group. The test compounds were each dissolved in a solvent composed of 10% 1-methyl-2-pyrrolidinone (SIGMA-ALDRICH Inc.)/90% polyethylene glycol 300 (Fluka Inc.) and administered orally at a dose of 3 mg/kg. Administrations were performed once a day for 14 days, and body weight and tumor size were measured every other day. Tumor volume was calculated using the following formula.
[Tumor volume (mm^3)]=[Tumor major axis (mm)]×[tumor minor axis (mm)]^2×0.5

[5] = test system: human non-small cell lung cancer cell line NCI-H2228 cells (EML4-ALK fusion protein-expressing cells); assay: Inhibitory effect against anchorage-independent cell growth of NCI-H2228 cells (Test Example 3); type: cell-based; conditions: 120 h, spheroid plate, 5 days, CellTiter-Glo
From the text: Measurement for anchorage-independent cell growth (colony method, etc) has been known to be a system for investigating the anticancer action (pharmacological effect) of test compounds (Clinical Oncology, second edition, Cancer and Chemotherapy Publishers Inc.). In place of the colony method, there is a following method using spheroid plates for measuring the growth of non-attached cells.
as §1

T2 sequence (P00533 25-1210 L858R): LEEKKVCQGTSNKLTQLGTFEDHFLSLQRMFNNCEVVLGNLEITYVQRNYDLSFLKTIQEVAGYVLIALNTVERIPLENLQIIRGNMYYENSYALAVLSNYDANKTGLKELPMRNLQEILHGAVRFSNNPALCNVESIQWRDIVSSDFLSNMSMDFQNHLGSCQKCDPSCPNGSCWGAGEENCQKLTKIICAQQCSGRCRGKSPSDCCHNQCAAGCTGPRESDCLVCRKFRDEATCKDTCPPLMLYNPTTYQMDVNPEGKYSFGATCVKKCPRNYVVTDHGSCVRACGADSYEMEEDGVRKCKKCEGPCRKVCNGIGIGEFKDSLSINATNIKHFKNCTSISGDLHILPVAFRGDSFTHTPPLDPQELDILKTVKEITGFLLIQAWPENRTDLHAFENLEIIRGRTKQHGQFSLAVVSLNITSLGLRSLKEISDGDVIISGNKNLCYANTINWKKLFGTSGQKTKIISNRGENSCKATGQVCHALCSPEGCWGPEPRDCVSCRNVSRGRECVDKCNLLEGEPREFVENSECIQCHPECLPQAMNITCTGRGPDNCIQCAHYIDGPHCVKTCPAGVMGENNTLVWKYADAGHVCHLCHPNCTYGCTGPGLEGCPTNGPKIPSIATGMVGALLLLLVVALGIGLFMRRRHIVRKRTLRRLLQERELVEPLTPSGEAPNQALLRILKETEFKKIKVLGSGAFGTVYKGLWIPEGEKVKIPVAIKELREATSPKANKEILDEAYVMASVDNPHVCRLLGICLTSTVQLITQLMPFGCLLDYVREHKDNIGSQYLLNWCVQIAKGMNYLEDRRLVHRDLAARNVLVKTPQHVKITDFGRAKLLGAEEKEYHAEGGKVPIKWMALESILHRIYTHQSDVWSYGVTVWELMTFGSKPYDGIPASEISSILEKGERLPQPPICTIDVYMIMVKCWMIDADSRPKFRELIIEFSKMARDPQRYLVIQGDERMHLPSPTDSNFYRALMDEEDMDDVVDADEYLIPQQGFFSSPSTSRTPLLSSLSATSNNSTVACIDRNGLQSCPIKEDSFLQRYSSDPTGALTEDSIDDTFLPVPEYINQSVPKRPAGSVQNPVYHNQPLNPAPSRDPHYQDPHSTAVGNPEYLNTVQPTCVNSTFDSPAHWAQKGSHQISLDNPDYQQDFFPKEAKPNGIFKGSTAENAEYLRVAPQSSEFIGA

| SMILES | IC50 [1] | IC50 [2] | IC50 [3] | inhibition of the growth of NCI-H2228 cells (tumor) [4] | IC50 [5] |
| --- | --- | --- | --- | --- | --- |
| CCNS(=O)(=O)c1ccccc1Nc1ncnc(Nc2ccc(N3CCC(N4CCN(C)CC4)CC3)cc2OC)n1 [Example 123] | 1.1 µM | 0.1 µM | 0.238 µM | 108% | 0.03 µM |
| COc1cc(N2CCC(N3CCN(C)CC3)CC2)ccc1Nc1ncnc(Nc2ccccc2S(=O)(=O)C(C)C)n1 [Example 23] | 1.5 µM | 0.12 µM | 0.272 µM | 116% | 0.071 µM |
